From patent publication US20120040920A1, “OLIGOSACCHARIDE ALDONIC ACIDS AND THEIR TOPICAL USE” (priority 1999, published 2012)

Tests used:
[1] = gel matrix formation on evaporation of an aqueous solution at room temperature; assay type: physicochemical
From the text: In contrast to an alpha hydroxyacid and polyhydroxyacid, an oligosaccharide aldonic acid can form a gel matrix when its aqueous solution is evaporated at room temperature. The transparent gel obtained retains certain amount of water forming a clear gel matrix. The amount of water retention depends on individual oligosaccharide aldonic acid. Examples of gel matrix preparations are provided below.
In one example, a gel matrix can be formed when aqueous solution comprising an oligosaccharide aldonic acid is evaporated at room temperature. The transparent gel thus obtained retains certain amount of water forming a clear gel matrix. The amount of water retention depends on individual oligosaccharide aldonic acid. For example, maltobionic acid 1 g in a beaker was dissolved in water 1 ml, and the solution thus obtained was left at room temperature. Fifty percent of the original water had been evaporated at the end of 24 hours, and 57% at the end of 48 hours, and 60% at the end of 72 hours, and no more or minimal evaporation of water could be detected after 72 hours. A clear gel film thus obtained contained 29% water complexed with maltobionic acid molecules. In the same manner, lactobionic acid formed a clear gel matrix with 14% water molecules and cellobionic acid formed a transparent gel with 7% water molecules.
A typical experiment to determine a gel matrix formation of an oligosaccharide aldonic acid may be carried out as follows.
Maltobionic acid 1 g in a beaker of 3.6 cm diameter and 3.6 cm height was dissolved in water 1 ml, and the solution thus obtained was left at room temperature between 20-25° C. to allow a slow evaporation of the water. […] The continuous transparent film thus obtained consisted of 71% maltobionic acid and 29% water by weight, and was formed as a complex gel matrix between maltobionic acid molecules and water molecules.

[2] = antioxidant property, anthralin test method; assay type: physicochemical
From the text: An antioxidant may be defined as a substance capable of preventing or inhibiting oxidation. […] The antioxidant property is readily determined by using any one of the following test methods: prevention or retardation of air oxidation of (a) anthralin, (b) hydroquinone, or (c) banana peel. A freshly prepared anthralin solution or cream is bright yellow, and an air oxidized one is brownish or black. A hydroquinone solution or cream is colorless or white color, and an air oxidized one is brownish or black. A freshly peeled banana peel is light yellow in color and an oxidized one ranges in color from tan, dark tan, brown to brownish black.
Antioxidant property of an oligosaccharide aldonic acid may be determined by utilizing anthralin test method as follows.
Anthralin also known as dithranol is a yellowish powder, and a composition containing anthralin without a suitable antioxidant is chemically unstable even at room temperature. For example, anthralin 0.05% in an oil-in-water cream changed in color from yellow to gray within 24 hours at room temperature, and the cream became brownish within 48 hours. Under anhydrous condition, anthralin 0.05% ointment prepared from white petrolatum 2 parts and mineral oil 1 part by weight changed in color from bright yellow to grayish yellow within 24 hours, and the ointment became brownish after 12 days at room temperature.
Based on the above observations, an oil-in-water cream containing 0.4% anthralin with or without a known antioxidant was used as a positive or vehicle control.

[3] = tested on: skin changes associated with aging; test: skin thickness of forearm by micrometer calipers after topical application; assay type: in vivo, human; details: twice daily, four weeks, person
Protocol: In one of the studies related to skin changes associated with aging, skin thickness was measured by micrometer calipers as follows:
The skin was grasped with a 2×6 cm metal hinge; the internal faces of which were coated with emery cloth to prevent slippage, and manually squeezed to threshold subject discomfort. Combined thickness of two whole-skin layers including thickness of the two hinge leaves was measured with micrometer calipers. Thickness of the two hinge leaves was subtracted to determine the actual thickness of two whole-skin layers. Triplicate measurements on treated sites were done and an average number was used for calculation of the skin thickness.
A subject, topically applied twice daily to their left forearm for four weeks lactobionic acid 22% in a solution prepared from water 7 parts and propylene glycol 3 parts. After four weeks their right forearm was still loose and relatively thin, and the skin was relatively rough and dry. […] While there was no change in skin thickness of their right forearm, their left forearm had increased 12% in skin thickness as measured by the micrometer calipers described in the Example.

[4] = tested on: skin fissures (open cuts); test: topical treatment of skin fissures at finger tips; assay type: in vivo, human; details: 10% oil-in-water cream twice daily, person
Protocol: A subject, having two skin fissures (open cuts) 2-3 mm long at the finger tips, extending from the hyponychia, topically applied twice daily lactobionic acid 10% oil-in-water cream to one fissure for one week. The other fissure was treated with a vehicle control.

[5] = tested on: scrotum and perineum itch; test: topical treatment of scrotum and perineum itch; assay type: in vivo, human; details: 18% oil-in-water cream pH 2.0, person
From the text: Lactobionic acid 54% aqueous solution 30 g was uniformly mixed with an oil-in-water base 60 g. The cream thus prepared had pH 2.0 and contained 18% lactobionic acid.
A subject, having a lasting scrotum and perineum itch after each time taking a shower topically applied the above bionic acid cream to the affected areas of the skin.

[6] = tested on: linear wounds 1 cm in length and 0.5 mm in depth; test: healing of linear needle wounds on forearm; assay type: in vivo, human; details: 2% in distilled water
From the text: A sterile 22-gauge needle was held in the jaws of a surgical needle holder, and two linear wounds 1 cm in length and 0.5 mm in depth were made on alcohol-swabbed left forearm of a healthy subject. The wounds were swabbed dry with cotton balls. A control solution containing 0.9% sodium chloride in distilled water was applied to one wound, and a test solution containing 2% lactobionic acid in distilled water was applied to the other wound. Both wounds were covered with 3M Tegaderm tapes for five days. […] The erythema disappeared from both skin sites at the end of nine days.

[7] = tested on: circular wounds 0.5 mm in depth; test: healing of circular 4 mm biopsy punch wounds on forearm; assay type: in vivo, human; details: 2% in distilled water
From the text: A sterile 4 mm skin biopsy punch was used to make two circular wounds 0.5 mm in depth on alcohol-swabbed left forearm of a healthy subject. The wounds were swabbed dry with cotton balls. A control solution containing 0.9% sodium chloride in distilled water was applied to one circular wound, and a test solution containing 2% lactobionic acid in distilled water was applied to the other circular wound. Both wounds were covered with 3M Tegaderm tapes for five days. […] The erythema disappeared from both skin sites at the end of nine days.

[8] = tested on: contact dermatitis or erythema; test: topical treatment of facial erythema caused by glycolic acid cream; assay type: in vivo, human; details: 5% partially neutralized cream, three applications over 24 hour period, person; control side persisted
From the text: A subject, developed contact dermatitis or erythema on their face after topical applications of 20% unneutralized glycolic acid cream. They applied 5% partially neutralized lactobionic acid cream on the left side of their face and a control cream on the right side of their face.

[9] = by weight, 1 g acid in 1 ml water evaporated at room temperature
[10] = covered five days, end of one week, saline control not epithelialized

Structure (SMILES): O=C(O)[C@H](O)[C@@H](O)[C@H](O[C@@H]1O[C@H](CO)[C@H](O)[C@H](O)[C@H]1O)[C@H](O)CO [lactobionic acid]
- gel matrix formation ([1]; 1 g in 1 ml water, 20-25° C., slow evaporation): clear continuous gel film was formed
- acid content of the gel film [1, 9]: 86%
- water retained in the gel film (gel matrix) [1, 9]: 14%
- antioxidant grade ([2]; anthralin and hydroquinone test methods): moderate antioxidant
- colour change of anthralin cream ([2]; oil-in-water cream, 0.4% anthralin, test substance 0.1 M, 24 hours): did not change the color
- increase in skin thickness ([3]; 22% in water/propylene glycol 7:3 solution, left forearm): 12%
- skin condition of treated forearm ([3]; 22% solution): more firm and plump, and the skin was smooth, soft and not dry
- healing of skin fissure ([4]; after a week, vehicle site unhealed): skin fissure healed completely
- pain of skin fissure [4]: pain disappeared after a few days
- itch [5]: itch stopped immediately
- wound healing [6, 10]: healed with re-epithelialization
- time to disappearance of erythema ([6]; same at control site): nine
- wound healing [7, 10]: healed with re-epithelialization
- time to disappearance of erythema ([7]; same at control site): nine
- erythema of facial skin [8]: improved substantially and the erythema became less noticeable
